Test results published in ChEMBL document CHEMBL3864145, “Synthesis and biological evaluation of crown ether acyl derivatives” (Bioorg Med Chem Lett, 2016).
In brackets after ≈: the same amount, converted by molar mass. Values belong to the compound of their own block, whether it stands above or below them.

Columns and labels:
Staphylococcus aureus [1] = assay: Antibacterial activity against Staphylococcus aureus ATCC 25923 at 50 uM after 24 hrs by UV/Vis spectrophotometer relative to control; assay type: functional; settings: ATCC 25923, 24 h
[2] = Cytotoxicity against human HBL100 cells assessed as growth inhibition after 48 hrs by SRB assay; assay type: functional; settings: HBL-100, 48 h
Escherichia coli = assay: Antibacterial activity against Escherichia coli ATCC 25922 at 50 uM after 24 hrs by UV/Vis spectrophotometer relative to control; assay type: functional; settings: ATCC 25922, 24 h
[3] = Cytotoxicity against human WiDr cells assessed as growth inhibition after 48 hrs by SRB assay; assay type: functional
Candida albicans [4] = assay: Antifungal activity against Candida albicans ATCC 90028 at 50 uM after 48 hrs by UV/Vis spectrophotometer relative to control; assay type: functional; settings: ATCC 90028, 48 h
[5] = Cytotoxicity against human HeLa cells assessed as growth inhibition after 48 hrs by SRB assay; assay type: functional
[6] = Cytotoxicity against human SW1573 cells assessed as growth inhibition after 48 hrs by SRB assay; assay type: functional; settings: SW1573, 48 h
Enterococcus faecalis = assay: Antibacterial activity against Enterococcus faecalis ATCC 29212 at 50 uM after 24 hrs by UV/Vis spectrophotometer relative to control; assay type: functional; settings: ATCC 29212, 24 h
[7] = Ratio of MIC50 for Staphylococcus aureus ATCC 25923 to GI50 for human SW1573 cells; assay type: functional
[8] = Ratio of MIC50 for Staphylococcus aureus ATCC 25923 to GI50 for human HeLa cells; assay type: functional
[9] = Cytotoxicity against telomerase-immortalized human BJ cells assessed as growth inhibition after 48 hrs by SRB assay; assay type: toxicity, cell-based
[10] = Ratio of MIC50 for Staphylococcus aureus ATCC 25923 to GI50 for human WiDr cells; assay type: functional
Staphylococcus aureus [11] = assay: Antibacterial activity against Staphylococcus aureus ATCC 25923 by broth microdilution method; assay type: functional
[12] = Ratio of MIC50 for Staphylococcus aureus ATCC 25923 to GI50 for human HBL100 cells; assay type: functional, HBL-100
Candida albicans [13] = assay: Antifungal activity against Candida albicans ATCC 90028 by broth microdilution method; assay type: functional

SMILES: O=C(CCCCCc1ccccc1)OCC1COCCOCCOCCOCCOCCO1 (stereo unspecified)
inhibition at 50 µM (Staphylococcus aureus [1]): 0%
GI50 [2]: 64 µM
inhibition at 50 µM (Escherichia coli): 5.8%
GI50 [3]: > 100 µM
inhibition at 50 µM (Candida albicans [4]): 11%
GI50 [5]: 79 µM
GI50 [6]: 78 µM
inhibition at 50 µM (Enterococcus faecalis): 0%

SMILES: O=C(CCCCOc1ccccc1)OCC1COCCOCCOCCOCCOCCO1 (stereo unspecified)
inhibition at 50 µM (Staphylococcus aureus [1]): 0%
GI50 [2]: > 100 µM
inhibition at 50 µM (Escherichia coli): 8.1%
GI50 [3]: > 100 µM
inhibition at 50 µM (Candida albicans [4]): 1.6%
GI50 [5]: > 100 µM
GI50 [6]: > 100 µM
inhibition at 50 µM (Enterococcus faecalis): 3.5%

SMILES: O=C(CCCCc1ccccc1)OCC1COCCOCCOCCOCCOCCO1 (stereo unspecified)
inhibition at 50 µM (Staphylococcus aureus [1]): 0%
GI50 [2]: 69 µM
inhibition at 50 µM (Escherichia coli): 5%
GI50 [3]: > 100 µM
inhibition at 50 µM (Candida albicans [4]): 5.5%
GI50 [5]: 52 µM
GI50 [6]: > 100 µM
inhibition at 50 µM (Enterococcus faecalis): 0.3%

SMILES: O=C(CCCc1cc2ccccc2[nH]1)OCC1COCCOCCOCCOCCOCCO1 (stereo unspecified)
GI50 [2]: > 100 µM
GI50 [3]: > 100 µM
GI50 [5]: > 100 µM
GI50 [6]: > 100 µM

MIC50 (Staphylococcus aureus [11]): 11.1 µg/mL
MIC90 (Staphylococcus aureus [11]): 50 µM
SMILES: O=C(OCC1COCCOCCOCCOCCOCCO1)c1c2ccccc2cc2ccccc12 (stereo unspecified)
inhibition at 50 µM (Staphylococcus aureus [1]): 98%
GI50 [2]: 5 µM
Ratio [7]: 4
inhibition at 50 µM (Escherichia coli): 7.8%
GI50 [3]: 5.6 µM
Ratio [8]: 4
inhibition at 50 µM (Candida albicans [4]): 4.3%
GI50 [5]: 3.7 µM
GI50 at 48 h [9]: 5.4 µM
GI50 [6]: 3.8 µM
Ratio [10]: 4
Ratio [12]: 4
inhibition at 50 µM (Enterococcus faecalis): 0%

SMILES: O=C(OCC1COCCOCCOCCOCCOCCO1)c1cccnc1 (stereo unspecified)
inhibition at 50 µM (Staphylococcus aureus [1]): 0%
GI50 [2]: > 100 µM
inhibition at 50 µM (Escherichia coli): 6.2%
GI50 [3]: > 100 µM
inhibition at 50 µM (Candida albicans [4]): 24%
GI50 [5]: > 100 µM
GI50 [6]: > 100 µM
inhibition at 50 µM (Enterococcus faecalis): 6.8%

SMILES: C[C@@H]1[C@H](O)[C@@H](C)/C=C/C=C/C=C/C=C/C=C/C=C/C=C/[C@H](O[C@@H]2O[C@H](C)[C@@H](O)[C@H](N)[C@@H]2O)C[C@@H]2O[C@](O)(C[C@@H](O)C[C@@H](O)[C@H](O)CC[C@@H](O)C[C@@H](O)CC(=O)O[C@H]1C)C[C@H](O)[C@H]2C(=O)O [AMPHOTERICIN B]
MIC90 (Candida albicans [13]): 0.5 µg/mL

SMILES: COc1cc([C@@H]2c3cc4c(cc3[C@@H](O[C@@H]3O[C@@H]5CO[C@@H](C)O[C@H]5[C@H](O)[C@H]3O)[C@H]3COC(=O)[C@H]23)OCO4)cc(OC)c1O [ETOPOSIDE]
GI50 [2]: 1.4 µM
GI50 [3]: 23 µM
GI50 [5]: 3.3 µM
GI50 [6]: 15 µM

SMILES: O=C(CCCCC1CCCCC1)OCC1COCCOCCOCCOCCOCCO1 (stereo unspecified)
inhibition at 50 µM (Staphylococcus aureus [1]): 61%
GI50 [2]: 72 µM
inhibition at 50 µM (Escherichia coli): 0%
GI50 [3]: 33 µM
inhibition at 50 µM (Candida albicans [4]): 0%
GI50 [5]: 71 µM
GI50 [6]: 51 µM
inhibition at 50 µM (Enterococcus faecalis): 0%

SMILES: CC/C=C/CC(=O)OCC1COCCOCCOCCOCCOCCO1 (stereo unspecified)
inhibition at 50 µM (Staphylococcus aureus [1]): 6.9%
GI50 [2]: > 100 µM
inhibition at 50 µM (Escherichia coli): 4.3%
GI50 [3]: > 100 µM
inhibition at 50 µM (Candida albicans [4]): 9.4%
GI50 [5]: > 100 µM
GI50 [6]: > 100 µM
inhibition at 50 µM (Enterococcus faecalis): 4.7%

MIC50 (Candida albicans [13]): 20.1 µg/mL (≈ 36.5 µM)
MIC90 (Candida albicans [13]): 42 µM
MIC50 (Staphylococcus aureus [11]): 7.2 µM
MIC90 (Staphylococcus aureus [11]): 8.3 µM
SMILES: O=C(CCc1ccc2ccc3cccc4ccc1c2c34)OCC1COCCOCCOCCOCCOCCO1 (stereo unspecified)
inhibition at 50 µM (Staphylococcus aureus [1]): 99%
GI50 [2]: 21 µM
inhibition at 50 µM (Escherichia coli): 0%
GI50 [3]: 19 µM
inhibition at 50 µM (Candida albicans [4]): 101%
GI50 [5]: 17 µM
GI50 at 48 h [9]: 19 µM
GI50 [6]: 18 µM
inhibition at 50 µM (Enterococcus faecalis): 0%

SMILES: O=C(CCCCC1CCCCC1)OCC1COCCOCCOCCOCCO1 (stereo unspecified)
inhibition at 50 µM (Staphylococcus aureus [1]): 0%
GI50 [2]: > 100 µM
inhibition at 50 µM (Escherichia coli): 3.1%
GI50 [3]: > 100 µM
inhibition at 50 µM (Candida albicans [4]): 0%
GI50 [5]: > 100 µM
GI50 [6]: > 100 µM
inhibition at 50 µM (Enterococcus faecalis): 0%

SMILES: CC(=O)OCC1COCCOCCOCCOCCOCCO1 (stereo unspecified)
GI50 [2]: > 100 µM
GI50 [3]: > 100 µM
GI50 [5]: > 100 µM
GI50 [6]: > 100 µM

SMILES: O=C(Cc1cccc(OCc2ccccc2)c1)OCC1COCCOCCOCCOCCOCCO1 (stereo unspecified)
inhibition at 50 µM (Staphylococcus aureus [1]): 0%
GI50 [2]: 29 µM
inhibition at 50 µM (Escherichia coli): 3.6%
GI50 [3]: 24 µM
inhibition at 50 µM (Candida albicans [4]): 0%
GI50 [5]: 35 µM
GI50 at 48 h [9]: 22 µM
GI50 [6]: 36 µM
inhibition at 50 µM (Enterococcus faecalis): 0%

SMILES: CC1(C(=O)OCC2COCCOCCOCCOCCOCCO2)c2ccccc2-c2ccccc21 (stereo unspecified)
inhibition at 50 µM (Staphylococcus aureus [1]): 0%
GI50 [2]: 11 µM
inhibition at 50 µM (Escherichia coli): 0.1%
GI50 [3]: 12 µM
inhibition at 50 µM (Candida albicans [4]): 0%
GI50 [5]: 12 µM
GI50 at 48 h [9]: 18 µM
GI50 [6]: 8.8 µM
inhibition at 50 µM (Enterococcus faecalis): 0%

MIC50 (Staphylococcus aureus [11]): 6.8 µg/mL
MIC90 (Staphylococcus aureus [11]): 25 µM
SMILES: O=C(OCC1COCCOCCOCCOCCOCCO1)c1cccc(-c2ccc(Br)cc2)c1 (stereo unspecified)
inhibition at 50 µM (Staphylococcus aureus [1]): 98%
GI50 [2]: 6.4 µM
inhibition at 50 µM (Escherichia coli): 6.5%
GI50 [3]: 6.2 µM
inhibition at 50 µM (Candida albicans [4]): 1%
GI50 [5]: 7.8 µM
GI50 at 48 h [9]: 8.2 µM
GI50 [6]: 4.4 µM
inhibition at 50 µM (Enterococcus faecalis): 0%

MIC90 (Candida albicans [13]): 36 µM
SMILES: O=C(CCCCCCCCCCOc1ccccc1)OCC1COCCOCCOCCOCCOCCO1 (stereo unspecified)
inhibition at 50 µM (Staphylococcus aureus [1]): 29%
GI50 [2]: 20 µM
inhibition at 50 µM (Escherichia coli): 0%
GI50 [3]: 66 µM
inhibition at 50 µM (Candida albicans [4]): 101%
GI50 [5]: 41 µM
GI50 at 48 h [9]: 24 µM
GI50 [6]: 24 µM
inhibition at 50 µM (Enterococcus faecalis): 2.1%

SMILES: O=C(O)c1cn(C2CC2)c2cc(N3CCNCC3)c(F)cc2c1=O [CIPROFLOXACIN]
MIC90 (Staphylococcus aureus [11]): 0.5 µg/mL

SMILES: COc1ccc(/C=C/C(=O)OCC2COCCOCCOCCOCCOCCO2)cc1 (stereo unspecified)
inhibition at 50 µM (Staphylococcus aureus [1]): 0%
GI50 [2]: 50 µM
inhibition at 50 µM (Escherichia coli): 7.3%
GI50 [3]: 56 µM
inhibition at 50 µM (Candida albicans [4]): 0%
GI50 [5]: 56 µM
GI50 at 48 h [9]: > 100 µM
GI50 [6]: 54 µM
inhibition at 50 µM (Enterococcus faecalis): 0%

SMILES: CC(C)=CC1C(C(=O)OCC2COCCOCCOCCOCCOCCO2)C1(C)C (stereo unspecified)
inhibition at 50 µM (Staphylococcus aureus [1]): 0%
GI50 [2]: 40 µM
inhibition at 50 µM (Escherichia coli): 0%
GI50 [3]: 56 µM
inhibition at 50 µM (Candida albicans [4]): 0%
GI50 [5]: 63 µM
GI50 at 48 h [9]: > 100 µM
GI50 [6]: 54 µM
inhibition at 50 µM (Enterococcus faecalis): 0%

SMILES: O=C(/C=C/c1ccccc1)OCC1COCCOCCOCCOCCOCCO1 (stereo unspecified)
inhibition at 50 µM (Staphylococcus aureus [1]): 3.4%
GI50 [2]: 57 µM
inhibition at 50 µM (Escherichia coli): 5.9%
GI50 [3]: > 100 µM
inhibition at 50 µM (Candida albicans [4]): 36.7%
GI50 [5]: 48 µM
GI50 [6]: 48 µM
inhibition at 50 µM (Enterococcus faecalis): 3.3%

SMILES: O=C(CCCCC1CCCCC1)OCC1COCCOCCOCCO1 (stereo unspecified)
inhibition at 50 µM (Staphylococcus aureus [1]): 0%
GI50 [2]: > 100 µM
inhibition at 50 µM (Escherichia coli): 4.9%
GI50 [3]: > 100 µM
inhibition at 50 µM (Candida albicans [4]): 0%
GI50 [5]: > 100 µM
GI50 [6]: > 100 µM
inhibition at 50 µM (Enterococcus faecalis): 0%
